Like-named read-outs stand apart in the source and are kept apart here.
Legend:
[1] = system: human colon carcinoma cell line CX-1; assay: Colony formation assay, human colon carcinoma CX-1; format: cell-based; conditions: for IC50: Homo sapiens, Colon carcinoma cell; for IC50 / CX-1 (IC50): 24 h treatment, colony count after 7 to 10 days; for Selectivity (ratio of IC50 for CV-1 and IC50 for CX-1): CV-1/CX-1
Description: (§2) Human colon carcinoma cell line CX-1 or normal monkey kidney epithelial cell line CV-1 was chosen as representatives of cancer cells and normal cells, respectively. […] CX-1 cells (2,000 cells/well) and CV-1 cells (1,000 cells/well) were plated in 24-well plastic culture plates. […] The control received culture media only. Cells were treated with compounds of General Formulas (1) to (6) at 37° C. for 24 hours. After rinsing with fresh culture medium three times, the cells were further incubated at 37° C. for 7 to 10 days. Cell colonies were fixed and stained with 2% crystal violet in 70% ethanol for 10 minutes and rinsed in water. […] The selectivity is defined as the ratio of IC50 for CV-1 and IC50 for CX-1.

[2] = system: human bladder carcinoma EJ cell line; assay: Colony formation assay, human bladder carcinoma EJ; format: cell-based; conditions: for IC50: Homo sapiens, EJ, 24 h, read-out: EJ (IC50); for Selectivity (CV-1 IC50 / EJ IC50): CV-1/EJ
Description: (§1) The control received culture media only.

[3] = system: human melanoma LOX cell line; assay: Colony formation assay, human melanoma LOX; format: cell-based; conditions: for IC50: Homo sapiens, LOX, 24 h, read-out: LOX (IC50); for Selectivity (CV-1 IC50 / LOX IC50): CV-1/LOX
Description: as §1

[4] = system: human breast carcinoma MCF-7 cell line; assay: Colony formation assay, human breast carcinoma MCF-7; format: cell-based; conditions: for Selectivity (CV-1 IC50 / MCF-7 IC50): CV-1/MCF-7; for IC50: Homo sapiens, MCF7, 24 h, read-out: MCF-7 (IC50)
Description: as §1
The Selectivity values, MCF-7 values and CV-1 values for compounds of the General Formulas (1) to (6) used in the present invention are shown in Table VI below.

[5] = system: human pancreatic carcinoma CRL 1420 cell line; assay: Colony formation assay, human pancreatic carcinoma CRL 1420; format: cell-based; conditions: Table VII; for CRL-1420 (IC50) / IC50: 24 h treatment; for Selectivity (CV-1 IC50 / CRL-1420 IC50): CV-1/CRL-1420; for IC50: Homo sapiens, 24 h
Description: as §1
The Selectivity values, CRL 1420 values and CV-1 values for compounds of the General Formulas (1) to (6) used in the present invention are shown in Table VII below.

[6] = system: normal monkey kidney epithelial cell line CV-1; assay: Colony formation assay, normal monkey kidney epithelial cells CV-1; conditions: for IC50: Primates, Epithelial cell;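 as to all read-outs here: colonies visualized by crystal violet staining, incubation at 37 °C, IC50 relative to untreated wells given culture medium alone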
Description: as §2

[7] = Table III, read-out: CX-1 (IC50)
[8] = read-out: CV-1 (IC50), Table IV
[9] = read-out: CV-1 (IC50), Table VI
[10] = read-out: CV-1 (IC50), Table VII
[11] = read-out: CV-1 (IC50), Table III, 24 h treatment, colony count after 7 to 10 days
[12] = read-out: CX-1 (IC50), Table III

Structure (SMILES)	IC50 [1, 7] [µg/mL]	Selectivity (ratio of IC50 for CV-1 and IC50 for CX-1) ([1]; Table III)	IC50 ([2]; Table IV, 24 h treatment) [µg/mL]	Selectivity (CV-1 IC50 / EJ IC50) ([2]; Table IV)	IC50 ([3]; Table V, 24 h treatment) [µg/mL]	Selectivity (CV-1 IC50 / LOX IC50) ([3]; Table V)	Selectivity (CV-1 IC50 / MCF-7 IC50) ([4]; Table VI)	Selectivity (CV-1 IC50 / CRL-1420 IC50) [5]	IC50 [6, 8] [µg/mL]	IC50 ([6]; read-out: CV-1 (IC50), Table V) [µg/mL]	IC50 ([4]; Table VI, 24 h treatment) [µg/mL]	IC50 [5] [µg/mL]	IC50 [6, 9] [µg/mL]	IC50 [6, 10] [µg/mL]	IC50 [6, 11] [µg/mL]	further results
CCN1C(=CC=c2sc(=Cc3sc4ccccc4[n+]3CC)n(CC)c2=O)Sc2ccc3ccccc3c21 [Compound 37]	0.02	250	0.03	167	0.05	100	100	167	5	5						MCF-7 (IC50) ([4]; Table VI, 24 h treatment): 0.05 µg/mL; CRL-1420 (IC50) [5]: 0.03 µg/mL
CCN1C(=CC=c2sc(=Cc3sc4c5ccccc5ccc4[n+]3C)n(CC)c2=O)Sc2ccc3ccccc3c21 [Compound 49]		667	0.045	444	0.075	267	333	267	20	20	0.06	0.075	20	20		CX-1 (IC50) ([1]; Table III): 0.03 µg/mL
CCN1C(C)=CSC1=CC=c1sc(=Cc2sc3c4ccccc4ccc3[n+]2CC)n(CC)c1=O [Compound 97]	0.01	200	0.013	154		133			2	2					2	IC50 [3]: 0.015 µg/mL
CCN1CCSC1=CC=c1sc(=Cc2sc3ccc(Cl)cc3[n+]2CC)n(CC)c1=O [Compound 123]		200	0.13	154				154	20			0.13		20	20	IC50 [1, 12]: 0.1 µg/mL
CCN1CCSC1=CC=c1sc(=Cc2sc3ccc(C)cc3[n+]2CC)n(CC)c1=O [Compound 124]		167	0.05	100	0.04	125		125	5	5		0.04		5	5	IC50 [1, 12]: 0.03 µg/mL
CCN1CCSC1=CC=c1sc(=Cc2sc3ccc(OC)cc3[n+]2CC)n(CC)c1=O [Compound 125]	0.04	200	0.06	133	0.06	133	133	160	8	8	0.06	0.05	8	8		
CCn1c(=Cc2sc3ccccc3[n+]2CC)sc(=CC=C2SCCN2C)c1=O [Compound 141]	0.05	400			0.064	312	109	444		20	0.184	0.045	20	20	20	
CCN1CCSC1=CC=c1sc(=Cc2sc3ccccc3[n+]2CCOC)n(CC)c1=O [Compound 145]	0.05	200	0.082	122	0.064	156	100	122			0.1	0.082				IC50 ([6]; read-out: CV-1 (IC50)): 10 µg/mL
CCN1C(=CC=c2sc(=Cc3sc4ccccc4[n+]3CC)n(CC)c2=O)Sc2ccc3ccccc3c21 [Compound 178]		200					435	154								CX-1 (IC50) ([1]; Table III): 0.01 µg/mL; MCF-7 (IC50) ([4]; Table VI, 24 h treatment): 0.0046 µg/mL; CRL-1420 (IC50) [5]: 0.013 µg/mL; CV-1 (IC50) ([6]; Table III, 24 h treatment, colony count after 7 to 10 days): 2 µg/mL; CV-1 (IC50) ([6]; Table VI): 2 µg/mL; CV-1 (IC50) ([6]; Table VII): 2 µg/mL
CCn1c(=Cc2sc3ccccc3[n+]2CC)sc(=CC=C2N(C)c3ccccc3C2(C)C)c1=O [Compound 206]	0.01	600	0.013	462	0.03	196	125	196	6	6	0.048	0.03	6	6	6	
CCn1c(=Cc2sc3ccc(Cl)cc3[n+]2CC)sc(=CC=C2N(C)c3ccccc3C2(C)C)c1=O [Compound 214]		267	0.04	200	0.04	200		200	8	8		0.04		8		IC50 [1, 12]: 0.03 µg/mL
CCN1C(=CC=c2sc(=Cc3sc4c5ccccc5ccc4[n+]3CC)n(CC)c2=O)N(CC(F)(F)C(F)F)c2cc(C(F)(F)F)ccc21 [Compound 230]	0.05	375	0.05	300	0.06	200	167	300	15	15		0.05	15	15	15	IC50 [4]: 0.09 µg/mL
CCN1C(=CC=c2sc(=Cc3sc4ccc5ccccc5c4[n+]3CC)n(CC)c2=O)N(CC)c2ccccc21 [Compound 234]		333			0.03	333	200	333			0.05	0.03				IC50 [1, 12]: 0.03 µg/mL; IC50 ([6]; read-out: CV-1 (IC50)): 10 µg/mL
CCN1C(=CC=c2sc(=Cc3sc4c5ccccc5ccc4[n+]3CC)n(CC)c2=O)N(CC)c2cc(Cl)ccc21 [Compound 235]	0.05	> 400		500											> 20	IC50 [2]: 0.02 µg/mL; IC50 ([6]; read-out: CV-1 (IC50)): 10 µg/mL
CCN1C=CC=CC1=CC=c1sc(=Cc2sc3ccc4ccccc4c3[n+]2CC)n(CC)c1=O [Compound 278]		333			0.035	286	111	250				0.04				CX-1 (IC50) ([1]; Table III): 0.03 µg/mL; IC50 [4]: 0.09 µg/mL; IC50 ([6]; read-out: CV-1 (IC50)): 10 µg/mL

— US5861424A, “Composition and method for treating cancer” (priority 1995, dated 1999)
